According to patent US12331048B2, “Pyrido-[3,4-d]pyridazine amine derivatives useful as NLRP3 inhibitors” (Ventus Therapeutics U.S., Inc., priority 2022, dated 2025):
Read-outs that look alike come from different tables or passages of the source.

How the values were obtained:
[1] = molecular target: T1, NLRP3 (Homo sapiens, UniProt Q96P20); test: Human whole blood (hWB) NLRP3 assay; assay type: cell-based; settings: LPS priming 1 μg/ml, ATP activation, read-out: hWB IC50 (raw activity data)
T1 construct: endogenous in cells
T1 sequence (Q96P20 whole entry): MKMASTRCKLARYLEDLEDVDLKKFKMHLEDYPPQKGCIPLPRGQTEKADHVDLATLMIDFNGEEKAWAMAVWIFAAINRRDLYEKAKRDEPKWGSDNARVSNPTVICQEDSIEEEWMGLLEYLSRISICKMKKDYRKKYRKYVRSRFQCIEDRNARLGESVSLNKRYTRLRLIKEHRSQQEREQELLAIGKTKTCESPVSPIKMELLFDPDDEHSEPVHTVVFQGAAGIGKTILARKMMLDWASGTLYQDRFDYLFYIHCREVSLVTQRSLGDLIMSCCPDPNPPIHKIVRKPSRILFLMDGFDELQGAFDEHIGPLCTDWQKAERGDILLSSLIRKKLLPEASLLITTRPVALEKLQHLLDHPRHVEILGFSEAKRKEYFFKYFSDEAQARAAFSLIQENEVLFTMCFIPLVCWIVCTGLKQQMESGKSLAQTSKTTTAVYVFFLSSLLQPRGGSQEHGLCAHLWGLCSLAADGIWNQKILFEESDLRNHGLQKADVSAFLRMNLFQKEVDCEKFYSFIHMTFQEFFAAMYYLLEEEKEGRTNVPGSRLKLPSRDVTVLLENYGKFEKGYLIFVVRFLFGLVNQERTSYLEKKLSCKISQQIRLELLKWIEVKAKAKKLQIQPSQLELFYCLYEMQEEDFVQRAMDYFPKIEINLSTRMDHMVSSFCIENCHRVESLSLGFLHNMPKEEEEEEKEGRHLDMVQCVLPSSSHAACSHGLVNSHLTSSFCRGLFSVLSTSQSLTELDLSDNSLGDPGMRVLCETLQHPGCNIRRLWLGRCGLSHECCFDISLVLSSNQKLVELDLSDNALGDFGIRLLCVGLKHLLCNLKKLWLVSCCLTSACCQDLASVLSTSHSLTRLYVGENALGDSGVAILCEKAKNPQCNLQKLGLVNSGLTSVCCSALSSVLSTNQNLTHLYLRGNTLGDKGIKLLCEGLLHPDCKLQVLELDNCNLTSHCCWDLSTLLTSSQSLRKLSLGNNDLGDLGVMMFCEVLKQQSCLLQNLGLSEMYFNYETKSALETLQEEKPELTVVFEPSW
Procedure: Heparin lithium coated tubes were used to collect blood from volunteers. Blood samples were distributed on 96 well plates using 90 μl per well. Priming was performed by adding 5 μl of LPS (O26:B6; Sigma L-2654) at a final concentration of 1 μg/ml for 4.5 hours in a humidified incubator with 37° C., 5% CO2. Thirty minutes prior to NLRP3 activation, 5 μl of a 20× compound solution or vehicle (2% DMSO) was added to each well and plates were incubated on a shaker (450 rpm) in a humidified incubator with 37° C., 5% CO2. Activation was then performed by adding 3.3 μl of a 31×ATP solution per well. At the end of the 30 minutes stimulation, the plates were centrifuged (800 g, 10 min. room temperature) and the plasma from each well was frozen at −80° C. […] levels in the supernatant were analyzed using a mesoscale discovery assay (MSD K151TUK) according to the manufacturers' instructions. Human whole blood was drawn from healthy volunteers after obtaining written informed consent.
Table D assigns each compound a code for potency in the human whole blood (hWB) NLRP3 Assay: A or B. According to the code. […] The corresponding raw activity data is also included.

[2] = Brain levels (kp and kpu,u) after oral administration; assay type: in vivo, CDI mice; settings: mice, 20 mpk PO; for Kp at 24 h / Kpu,u (unbound brain-to-plasma ratio): CDI, mouse, brain / plasma, po, 20 mg/kg; for Kp at 24 h: whole brain AUC over 24 h divided by plasma AUC; for Kpu,u (unbound brain-to-plasma ratio) / kpu,u (code): kp corrected with mouse plasma protein binding and mouse brain homogenate binding
Procedure: The in vivo total brain to plasma ratio was assessed in CDI mice after oral administration of the compound. Blood was collected at several timepoints up to 24 h, and transferred into plastic micro centrifuge tubes with EDTA-K2 as anticoagulant. Blood samples were centrifuged at 4000 g for 5 minutes at 4° C. to obtain plasma, then immediately frozen and stored at −75±15° C. prior to analysis. Animals were terminally anaesthetized with a rising concentration of CO2 gas at about 1 minute. At selected timepoints, whole brains were removed from the skull, rinsed in cold PBS to remove blood, dried with clean gauze, then frozen in liquid nitrogen and kept at −75±15° C. before analysis. At the time of analysis, brain samples were homogenized with PBS by tissue weight (g) to PBS volume (mL) ratio 1:3. Plasma and brain drug levels were quantified by LC/MS/MS on a AB Sciex Triple Quad 5500+ instrument, after separation on a HALO 160A ES-C18, 2.7 μm 2.1-50 mm column. Quantitation was performed using a calibration curve prepared in blank plasma or blank brain homogenate. The software WinNonlin (Phoenix™) was used for pharmacokinetic analysis from the concentrations versus time data, including the AUCinf and AUClast. The Kp ratio (total brain concentration over total plasma concentration) was calculated as (AUCtot,br)/(AUCtot,pl).
The unbound brain exposure was assessed as Kpuu, which is the free brain/free plasma concentration ratio (Cu,br/Cu,pl). The Cu,br/Cu,pl ratios were obtained from in vivo total brain to plasma ratios (Ctot,br/Ctot,pl) by using in vitro determined Fu,br and Fu,pl.
Plasma protein binding and brain homogenate protein binding were measured by equilibrium dialysis in a HTDialysis plate. The dialysis membranes were soaked in ultrapure water for 60 minutes to separate strips, then in 20% ethanol for 20 minutes, finally in dialysis buffer for 20 minutes. The dialysis set up was assembled according to the manufacturer's instruction. Each cell received 150 μL of plasma or brain homogenate spiked with 1 mM of compound, and dialyzed against an equal volume of dialysis buffer (PBS). The dialysis plate was sealed and incubated in an incubator at 37° C. with 5% CO2 at 100 rpm for 6 hours. At the end of incubation, compound concentration was measured in both chambers by LC-MS/MS on a Triple Quad™ 5500 from AB Inc after separation on a XSelect Hss T3 2.5μ (2.1×30 mm) column. Free fraction (Fu) was calculated as (Peak Area Ratio buffer chamber/Peak Area Ratio plasma chamber).
Kpuu was calculated as (AUCtot,br×Fu,br)/(AUCtot,pl×Fu,pl).
The below table also assigns each compound a code for kp and kpu,u values: A or B. According to the code. A represents a value of >0.3 and B represents a value of ≤0.3. […] The kpu,u was then calculated upon correcting this kp value with mouse plasma protein binding and mouse brain homogenates binding. A Kpu,u value >0.3 is brain penetrant, and Kpu,u value less than or equal to 0.3 is not brain penetrant. N.D.=not determined. The corresponding raw kp and kpu,u data is also included.

Row | IC50 [1] | Kp at 24 h ([2]; read-out: kp (code)) | Kp at 24 h ([2]; read-out: kp (raw)) | Kpu,u (unbound brain-to-plasma ratio) [2] | kpu,u (code) [2] | SMILES
1 | 890 nM | > 0.3 | 0.61 | 0.46 | A (A represents a value of >0.3) | CC1(C)CC[C@H](Nc2nnc(-c3ccc(C(F)F)cc3O)c3ccncc23)CO1 (single isomer, unassigned) [Compound 20]
2 | 1400 nM | > 0.3 | 0.65 | 0.099 | B (B represents a value of ≤0.3) | C[C@H]1C[C@H](Nc2nnc(-c3ccc(Cl)cc3O)c3ccncc23)CCO1 (single isomer, unassigned) [Compound 25C*]
3 | 1200 nM | > 0.3 | 1 | 0.2 | B (B represents a value of ≤0.3) | C[C@@H]1C[C@@H](Nc2nnc(-c3ccc(Cl)cc3O)c3ccncc23)CCO1 (single isomer, unassigned) [Compound 25D*]
4 | 800 nM | ≤ 0.3 | 0.13 | 0.15 | B (B represents a value of ≤0.3) | Oc1cc(Cl)ccc1-c1nnc(N[C@H]2CCOC2)c2cnccc12 (single isomer, unassigned) [Compound 7*, reference compound]
5 | 430 nM | > 0.3 | 0.66 | 2.3 | A (A represents a value of >0.3) | CN1CCO[C@@H](CNc2nnc(-c3ccc(C(F)(F)F)cc3O)c3ccncc23)C1 (single isomer, unassigned) [Compound 6*]
6 | 330 nM | > 0.3 | 0.69 | 1.9 | A (A represents a value of >0.3) | CC1(C)COCC[C@@H]1Nc1nnc(-c2ccc(C(F)F)cc2O)c2ccncc12 (single isomer, unassigned) [Compound 17]
7 | 660 nM | > 0.3 | 0.81 | 0.89 | A (A represents a value of >0.3) | CC1(C)C[C@@H](Nc2nnc(-c3ccc(Cl)cc3O)c3ccncc23)CCO1 (single isomer, unassigned) [Compound 4*]
8 | 1400 nM | > 0.3 | 0.96 | 1.3 | A (A represents a value of >0.3) | CC1(C)C[C@@H](Nc2nnc(-c3ccc(C(F)(F)F)cc3O)c3ccncc23)CCO1 (single isomer, unassigned) [Compound 11*]
9 | 1800 nM | > 0.3 | 0.48 | 0.59 | A (A represents a value of >0.3) | CC1(C)C[C@@H](Nc2nnc(-c3ccc(C(F)F)cc3O)c3ccncc23)CCO1 (single isomer, unassigned) [Compound 16*]
10 | 580 nM | > 0.3 | 1.1 | 0.1 | B (B represents a value of ≤0.3) | C[C@@H]1C[C@H](Nc2nnc(-c3ccc(Cl)cc3O)c3ccncc23)CCO1 (single isomer, unassigned) [Compound 25A*]
11 | 1000 nM | > 0.3 | 0.9 | 0.31 | A (A represents a value of >0.3) | CC1(C)COC[C@@H]1Nc1nnc(-c2ccc(Cl)cc2O)c2ccncc12 (single isomer, unassigned) [Compound 1*]
12 | 820 nM | > 0.3 | 0.33 | 1.3 | A (A represents a value of >0.3) | Cc1ccc(-c2nnc(N[C@H]3COC(C)(C)C3)c3cnccc23)c(O)c1F (single isomer, unassigned) [Compound 12]
13 | 1200 nM | > 0.3 | 0.83 | 2.2 | A (A represents a value of >0.3) | CC1(C)COCC[C@@H]1Nc1nnc(-c2ccc(C(F)(F)F)cc2O)c2ccncc12 (single isomer, unassigned) [Compound 15]
14 | 120 nM | ≤ 0.3 | 0.24 | 0.33 | A (A represents a value of >0.3) | CC1(C)C[C@@H](Nc2nnc(-c3ccc(C(F)F)cc3O)c3ccncc23)CO1 (single isomer, unassigned) [Compound 23]
15 | 160 nM | ≤ 0.3 | 0.24 | 2.2 | A (A represents a value of >0.3) | [2H]C([2H])([2H])OC(C)(C)CNc1nnc(-c2ccc(C(F)F)cc2O)c2ccncc12 [Compound 2, 5-(difluoromethyl)-2-(4-((2-(methoxy-d3)-2-methylpropyl)amino)pyrido[3,4-d]pyridazin-1-yl)phenol]
16 | 220 nM | > 0.3 | 0.6 | 0.77 | A (A represents a value of >0.3) | Cc1ccc(-c2nnc(N[C@H]3CCOCC3(C)C)c3cnccc23)c(O)c1 (single isomer, unassigned) [Compound 13]
17 | 1400 nM | > 0.3 | 0.35 | 0.51 | A (A represents a value of >0.3) | Cc1ccc(-c2nnc(N[C@H]3CCC(C)(C)OC3)c3cnccc23)c(O)c1 (single isomer, unassigned) [Compound 10*]
18 | 960 nM | > 0.3 | 1.1 | 0.34 | A (A represents a value of >0.3) | CC1(C)OCC[C@H]1Nc1nnc(-c2ccc(C(F)(F)F)cc2O)c2ccncc12 (single isomer, unassigned) [Compound 22]
19 | 1400 nM | > 0.3 | 1.4 | 0.81 | A (A represents a value of >0.3) | Oc1cc(C(F)(F)F)ccc1-c1nnc(N[C@H]2COC3(CC3)C2)c2cnccc12 (single isomer, unassigned) [Compound 19]
20 | 890 nM | > 0.3 | 0.68 | 0.47 | A (A represents a value of >0.3) | C[C@H]1COCC[C@H]1Nc1nnc(-c2ccc(Cl)cc2O)c2ccncc12 (single isomer, unassigned) [Compound 18*]
21 | 510 nM | > 0.3 | 0.64 | 0.33 | A (A represents a value of >0.3) | Cc1ccc(-c2nnc(N[C@H]3CCOC(C)(C)C3)c3cnccc23)c(O)c1 (single isomer, unassigned) [Compound 14]
